The source of these data is patent US12226424B2, “Target protein degradation compounds, their anti-tumor use, their intermediates and use of intermediates” (ShanghaiTech University, priority 2018, dated 2025).

For assay [1], the system named is MDA-MB-436 cells (PARP-positive). Nature of the assay: Half inhibitory concentration (IC50) on PARP-positive tumor cells, CCK-8, MDA-MB-436. It counts as cell-based. The note with it: Homo sapiens, 72 hours, read-out: IC50 (μM)/MDA-MB-436 cell line. Here is the method:
PARP-positive cells MDA-MB-436 cells (human breast cancer cells) were purchased from the American Type Culture Collection (ATCC).
The cells used in this present disclosure were cultured in a 37° C. incubator containing 5% CO2. The complete cell culture medium was DMEM medium with 10% fetal bovine serum, and the final concentrations of penicillin and streptomycin were 100 U/mL, respectively. All cells were tested negative for mycoplasma with mycoplasma detection kit before the experiment.
Determination of Half Inhibitory Concentration (IC50) of PROTAD Compounds on Tumor Cells
MDA-MB-436 cells were seeded in 100 μL DMEM complete medium at a density of 3500 cells/well. 100 μL of the inoculated cells were treated with 0.5 μL diluted PROTAD compounds of the present disclosure to be tested at 10 successively decreasing concentrations (starting at the highest concentration of 50 μM; 3-fold serial dilutions). After the cells were treated with the tested drugs for 72 hours, cell viability was determined according to the CCK-8 reagent operating instructions. The negative control was DMSO, and the positive control was a commercial inhibitor. After CCK-8 treatment for 2 h, the value of O.D.450 was measured using a microplate reader.

Another assay addresses BCR-ABL (Homo sapiens, UniProt P00519). Description: Western-blot half-degradation concentration (DC50) / degradation of BCR-ABL in K562 cells. The note with it: read-out: DC50 (nM)/K562 cell line, BCR-ABL protein degradation, 24 hours, Western-blot.
The subject of the next assay is HEK293 cells. Description: Proliferation inhibition (IC50) on non-BCR-ABL-positive HEK293 cells. The note with it: Homo sapiens, HEK293, read-out: IC50 (nM)/HEK293 cell line.
For another assay, the system named is U937 cells. Nature of the assay: Proliferation inhibition (IC50) on non-BCR-ABL-positive U937 cells. The note with it: Homo sapiens, U-937, read-out: IC50 (nM)/U937 cell line.
Assay [2] deals with K562 cells (BCR-ABL positive). Description: Half inhibitory concentration (IC50) on tumor cells, CCK-8, K562. The note with it: Homo sapiens, K562, 48 h, read-out: IC50 (nM)/K562 cell line.
Experimental: K562 cells were seeded in 100 μL of RPMI1640 complete medium at a density of 20,000 cells/well. 100 μL of the inoculated cells were treated with 100 μL diluted PROTAD compound of the present disclosure to be tested at 9 successively decreasing concentrations (starting at the highest concentration of 10 μM; 3-fold serial dilutions). After the cells were treated with the tested drugs for 48 hours, the cell viability determination was performed in accordance with CCK-8 reagent operating instructions. The negative control was DMSO, and positive control was a commercial inhibitor. After CCK-8 treatment for 2 h, the value of O.D.450 was measured using a microplate reader.

Sequence of BCR-ABL (P00519 with tags, fused parts or gaps): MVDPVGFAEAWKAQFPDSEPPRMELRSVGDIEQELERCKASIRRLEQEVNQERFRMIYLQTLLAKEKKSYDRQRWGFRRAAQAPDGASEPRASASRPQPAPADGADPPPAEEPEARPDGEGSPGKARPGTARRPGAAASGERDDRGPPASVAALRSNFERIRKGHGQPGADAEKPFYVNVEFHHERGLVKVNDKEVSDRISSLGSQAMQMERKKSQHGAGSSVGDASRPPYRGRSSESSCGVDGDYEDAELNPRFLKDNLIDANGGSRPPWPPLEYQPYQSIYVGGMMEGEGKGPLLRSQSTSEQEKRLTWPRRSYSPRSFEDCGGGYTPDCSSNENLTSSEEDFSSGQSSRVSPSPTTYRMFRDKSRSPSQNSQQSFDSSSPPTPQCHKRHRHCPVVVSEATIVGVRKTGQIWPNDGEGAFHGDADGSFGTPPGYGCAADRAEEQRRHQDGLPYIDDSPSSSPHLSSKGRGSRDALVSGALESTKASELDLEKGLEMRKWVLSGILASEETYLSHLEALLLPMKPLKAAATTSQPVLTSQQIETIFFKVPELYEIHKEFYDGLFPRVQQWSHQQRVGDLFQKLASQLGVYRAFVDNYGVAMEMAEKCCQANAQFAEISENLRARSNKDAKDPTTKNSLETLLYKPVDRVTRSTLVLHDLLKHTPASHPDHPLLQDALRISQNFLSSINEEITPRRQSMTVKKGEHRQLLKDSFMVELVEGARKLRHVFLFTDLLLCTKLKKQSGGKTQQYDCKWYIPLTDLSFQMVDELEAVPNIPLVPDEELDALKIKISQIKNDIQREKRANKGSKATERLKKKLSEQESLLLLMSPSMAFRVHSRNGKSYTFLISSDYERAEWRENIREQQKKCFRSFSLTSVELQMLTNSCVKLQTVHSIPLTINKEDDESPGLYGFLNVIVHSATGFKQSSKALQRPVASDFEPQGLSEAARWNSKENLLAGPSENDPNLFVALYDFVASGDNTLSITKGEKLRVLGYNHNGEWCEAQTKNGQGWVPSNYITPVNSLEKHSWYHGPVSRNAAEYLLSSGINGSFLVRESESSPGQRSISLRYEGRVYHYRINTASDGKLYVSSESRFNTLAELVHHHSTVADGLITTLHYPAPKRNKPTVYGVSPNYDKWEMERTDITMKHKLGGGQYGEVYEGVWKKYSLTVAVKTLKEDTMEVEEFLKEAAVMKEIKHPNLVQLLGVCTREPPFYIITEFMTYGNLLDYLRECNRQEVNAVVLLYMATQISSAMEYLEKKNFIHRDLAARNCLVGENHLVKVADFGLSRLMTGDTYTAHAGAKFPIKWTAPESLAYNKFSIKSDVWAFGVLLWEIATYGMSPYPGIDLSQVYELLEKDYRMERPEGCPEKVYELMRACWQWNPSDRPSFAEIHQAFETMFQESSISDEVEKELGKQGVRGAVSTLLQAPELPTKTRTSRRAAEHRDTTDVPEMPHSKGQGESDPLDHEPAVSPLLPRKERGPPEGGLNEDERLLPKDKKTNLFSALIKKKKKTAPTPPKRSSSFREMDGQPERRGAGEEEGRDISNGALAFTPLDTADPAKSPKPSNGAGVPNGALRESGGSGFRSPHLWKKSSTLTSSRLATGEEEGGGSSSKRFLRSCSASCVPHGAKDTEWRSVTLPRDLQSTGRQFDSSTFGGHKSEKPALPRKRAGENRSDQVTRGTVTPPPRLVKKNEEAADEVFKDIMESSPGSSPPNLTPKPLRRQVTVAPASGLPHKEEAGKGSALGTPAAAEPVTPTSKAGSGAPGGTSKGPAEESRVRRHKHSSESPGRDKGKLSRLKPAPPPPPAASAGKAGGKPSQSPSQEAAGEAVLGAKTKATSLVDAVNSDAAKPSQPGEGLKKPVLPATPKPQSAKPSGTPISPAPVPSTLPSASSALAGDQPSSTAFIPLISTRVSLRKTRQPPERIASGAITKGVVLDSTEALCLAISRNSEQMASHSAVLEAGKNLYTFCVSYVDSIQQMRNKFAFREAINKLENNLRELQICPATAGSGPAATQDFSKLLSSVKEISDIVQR

For the compound `O=C1CCC(N2C(=O)c3cccc(SCCCCCC(=O)N4CCN(C(=O)c5cc(Cc6n[nH]c(=O)c7ccccc67)ccc5F)CC4)c3C2=O)C(=O)N1` (centres unmarked) [SIAIS180067, 2-(2,6-dioxopiperidin-3-yl)-4-((6-(4-(2-fluoro-5-((4-oxo-3,4-dihydrophthalazin-1-yl)methyl)benzoyl)piperazin-1-yl)-6-oxohexyl)thio)isoindoline-1,3-dione], the IC50 in assay [1] is 2.9 µM.

In the case of `Cc1nc(Nc2ncc(C(=O)Nc3c(C)cccc3Cl)s2)cc(N2CCN(C(=O)CCCSc3cccc4c3CN(C3CCC(=O)NC3=O)C4=O)CC2)n1` (centres unmarked) [SIAIS171107, N-(2-chloro-6-methylphenyl)-2-((6-(4-(4-((2-(2,6-dioxopiperidin-3-yl)-1-oxoisoindolin-4-yl)thio)butanoyl)piperazin-1-yl)-2-methylpyrimidin-4-yl)amino)thiazole-5-carboxamide], the DC50 on BCR-ABL turned out to be 5.2 nM. In addition, the IC50 with HEK293 cells was more than 10000 nM; with U937 cells, more than 10000 nM; in assay [2] it was 1.4 nM.

As for `Cc1nc(Nc2ncc(C(=O)Nc3c(C)cccc3Cl)s2)cc(N2CCN(C(=O)CS(=O)(=O)c3cccc4c3C(=O)N(C3CCC(=O)NC3=O)C4=O)CC2)n1` (centres unmarked) [SIAIS151108, N-(2-chloro-6-methylphenyl)-2-((6-(4-(2-((2-(2,6-dioxopiperidin-3-yl)-1,3-dioxoisoindolin-4-yl)sulfonyl)acetyl)piperazin-1-yl)-2-methylpyrimidin-4-yl)amino)thiazole-5-carboxamide], the DC50 at BCR-ABL was 245 nM. Further, the IC50 was more than 10000 nM in the assay on HEK293 cells, more than 10000 nM with U937 cells and 206 nM in assay [2].

On to `Cc1nc(Nc2ncc(C(=O)Nc3c(C)cccc3Cl)s2)cc(N2CCN(C(=O)CSc3cccc4c3C(=O)N(C3CCC(=O)NC3=O)C4=O)CC2)n1` (centres unmarked) [SIAIS151110, N-(2-chloro-6-methylphenyl)-2-((6-(4-(2-((2-(2,6-dioxopiperidin-3-yl)-1,3-dioxoisoindolin-4-yl)thio)acetyl)piperazin-1-yl)-2-methylpyrimidin-4-yl)amino)thiazole-5-carboxamide], for which the DC50 at BCR-ABL is less than 1 nM. In addition, the IC50 in the assay on HEK293 cells is more than 10000 nM; in the assay with U937 cells, more than 10000 nM; in assay [2], 3.2 nM.

For the compound `O=C1CCC(N2C(=O)c3cccc(SCC(=O)N4CCN(C(=O)c5cc(Cc6n[nH]c(=O)c7ccccc67)ccc5F)CC4)c3C2=O)C(=O)N1` (centres unmarked) [SIAIS180063, 2-(2,6-dioxopiperidin-3-yl)-4-((2-(4-(2-fluoro-5-((4-oxo-3,4-dihydrophthalazin-1-yl)methyl)benzoyl)piperazin-1-yl)-2-oxoethyl)thio)isoindoline-1,3-dione], the IC50 in assay [1] is 6.45 µM.

With `O=C1CCC(N2C(=O)c3cccc(SCCCCC(=O)N4CCN(C(=O)c5cc(Cc6n[nH]c(=O)c7ccccc67)ccc5F)CC4)c3C2=O)C(=O)N1` (centres unmarked) [SIAIS180066, 2-(2,6-dioxopiperidin-3-yl)-4-((5-(4-(2-fluoro-5-((4-oxo-3,4-dihydrophthalazin-1-yl)methyl)benzoyl)piperazin-1-yl)-5-oxopentyl)thio)isoindoline-1,3-dione], the IC50 in assay [1] turned out to be 3.57 µM.

With `Cc1nc(Nc2ncc(C(=O)Nc3c(C)cccc3Cl)s2)cc(N2CCN(C(=O)CCSc3cccc4c3CN(C3CCC(=O)NC3=O)C4=O)CC2)n1` (centres unmarked) [SIAIS171106, N-(2-chloro-6-methylphenyl)-2-((6-(4-(3-((2-(2,6-dioxopiperidin-3-yl)-1-oxoisoindolin-4-yl)thio)propanoyl)piperazin-1-yl)-2-methylpyrimidin-4-yl)amino)thiazole-5-carboxamide], the DC50 on BCR-ABL came out at 10.3 nM. The IC50 in the assay with HEK293 cells was more than 10000 nM; with U937 cells, more than 10000 nM; in assay [2], 1.74 nM.

Take `NC(=O)c1cccc2cn(-c3ccc([C@@H]4CCCNC4)cc3)nc12` [Niraparib, reference compound]: the IC50 in assay [1] came to 1 µM.

In the case of `O=C(c1cc(Cc2n[nH]c(=O)c3ccccc23)ccc1F)N1CCN(C(=O)C2CC2)CC1` [Olaparib, reference compound], the IC50 in assay [1] stood at 2.31 µM.

Regarding `O=C1CCC(N2C(=O)c3cccc(SCCCC(=O)N4CCN(C(=O)c5cc(Cc6n[nH]c(=O)c7ccccc67)ccc5F)CC4)c3C2=O)C(=O)N1` (centres unmarked) [SIAIS180065, 2-(2,6-dioxopiperidin-3-yl)-4-((4-(4-(2-fluoro-5-((4-oxo-3,4-dihydrophthalazin-1-yl)methyl)benzoyl)piperazin-1-yl)-4-oxobutyl)thio)isoindoline-1,3-dione], the IC50 in assay [1] stood at 3.82 µM.

For `Cc1nc(Nc2ncc(C(=O)Nc3c(C)cccc3Cl)s2)cc(N2CCN(C(=O)CCCCSc3cccc4c3CN(C3CCC(=O)NC3=O)C4=O)CC2)n1` (centres unmarked) [SIAIS171108, N-(2-chloro-6-methylphenyl)-2-((6-(4-(5-((2-(2,6-dioxopiperidin-3-yl)-1-oxoisoindolin-4-yl)thio)pentanoyl)piperazin-1-yl)-2-methylpyrimidin-4-yl)amino)thiazole-5-carboxamide], the DC50 on BCR-ABL is less than 1 nM. The IC50 in the assay with HEK293 cells is more than 10000 nM; with U937 cells, more than 10000 nM; in assay [2] it was 0.54 nM.

As for `Cc1nc(Nc2ncc(C(=O)Nc3c(C)cccc3Cl)s2)cc(N2CCN(CCSc3cccc4c3C(=O)N(C3CCC(=O)NC3=O)C4=O)CC2)n1` (centres unmarked) [SIAIS172056, N-(2-chloro-6-methylphenyl)-2-((6-(4-(2-((2-(2,6-dioxopiperidin-3-yl)-1,3-dioxoisoindolin-4-yl)thio)ethyl)piperazin-1-yl)-2-methylpyrimidin-4-yl)amino)thiazole-5-carboxamide], the DC50 on BCR-ABL was less than 1 nM. Moreover, the results for the IC50 (with HEK293 cells; in the assay with U937 cells; in assay [2]) were more than 10000 nM, more than 10000 nM and 0.49 nM, respectively.

As to `O=C1CCC(N2C(=O)c3cccc(SCCCCCCC(=O)N4CCN(C(=O)c5cc(Cc6n[nH]c(=O)c7ccccc67)ccc5F)CC4)c3C2=O)C(=O)N1` (centres unmarked) [SIAIS180068, 2-(2,6-dioxopiperidin-3-yl)-4-((7-(4-(2-fluoro-5-((4-oxo-3,4-dihydrophthalazin-1-yl)methyl)benzoyl)piperazin-1-yl)-7-oxoheptyl)thio)isoindoline-1,3-dione], in assay [1], the IC50 came to 2.09 µM.

For the compound `O=C1CCC(N2C(=O)c3cccc(SCCC(=O)N4CCN(C(=O)c5cc(Cc6n[nH]c(=O)c7ccccc67)ccc5F)CC4)c3C2=O)C(=O)N1` (centres unmarked) [SIAIS180064, 2-(2,6-dioxopiperidin-3-yl)-4-((3-(4-(2-fluoro-5-((4-oxo-3,4-dihydrophthalazin-1-yl)methyl)benzoyl)piperazin-1-yl)-3-oxopropyl)thio)isoindoline-1,3-dione], in assay [1], the IC50 came to 5.78 µM.

As to `CNCc1ccc(-c2[nH]c3cc(F)cc4c3c2CCNC4=O)cc1` [Rucaparib, reference compound], in assay [1], the IC50 was determined as 1.12 µM.

On to `Cc1nc(Nc2ncc(C(=O)Nc3c(C)cccc3Cl)s2)cc(N2CCN(C(=O)CSc3cccc4c3CN(C3CCC(=O)NC3=O)C4=O)CC2)n1` (centres unmarked) [SIAIS171105, N-(2-chloro-6-methylphenyl)-2-((6-(4-(2-((2-(2,6-dioxopiperidin-3-yl)-1-oxoisoindolin-4-yl)thio)acetyl)piperazin-1-yl)-2-methylpyrimidin-4-yl)amino)thiazole-5-carboxamide], for which the DC50 on BCR-ABL was found to be 56.7 nM. For the same compound, the IC50 with HEK293 cells is more than 10000 nM; with U937 cells, more than 10000 nM; in assay [2] it was 5.71 nM.

As to `Cc1nc(Nc2ncc(C(=O)Nc3c(C)cccc3Cl)s2)cc(N2CCN(C(=O)C[S+]([O-])c3cccc4c3C(=O)N(C3CCC(=O)NC3=O)C4=O)CC2)n1` (centres unmarked) [SIAIS151109, N-(2-chloro-6-methylphenyl)-2-((6-(4-(2-((2-(2,6-dioxopiperidin-3-yl)-1,3-dioxoisoindolin-4-yl)sulfinyl)acetyl)piperazin-1-yl)-2-methylpyrimidin-4-yl)amino)thiazole-5-carboxamide], the DC50 on BCR-ABL amounted to 483 nM. Besides, the results for the IC50 (with HEK293 cells; in the assay on U937 cells; in assay [2]) were more than 10000 nM, more than 10000 nM and 148 nM, respectively.
